Measurements taken from US10975084B2, “KDM5 inhibitors” (Merck Sharp & Dohme Corp., priority 2016, dated 2021).

Target: KDM5B (Homo sapiens (Human), UniProt Q9UGL1)
Assay: KDM5B TR-FRET Enzyme Activity Assay
Assay type: biochemical
Conditions: LANCE TR-FRET; 5 nM full-length recombinant KDM5B; ten point titration 100000 nM to 5.08 nM
How it was run: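 Full-length KDM5B from Sf21 cells (5 nM) was preincubated 30 min with compound in HEPES pH 7.3 buffer with ascorbate and 2 μM Fe(II). Reaction with 500 nM biotinylated H3K4Me3 peptide and 500 nM α-ketoglutarate ran 60 min. Product was detected by TR-FRET (Eu-anti-H3K4Me1-2/streptavidin-Dylight 650, 665/615 ratio); IC50 came from a 4-parameter fit.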

Chain of KDM5B (Q9UGL1 whole entry): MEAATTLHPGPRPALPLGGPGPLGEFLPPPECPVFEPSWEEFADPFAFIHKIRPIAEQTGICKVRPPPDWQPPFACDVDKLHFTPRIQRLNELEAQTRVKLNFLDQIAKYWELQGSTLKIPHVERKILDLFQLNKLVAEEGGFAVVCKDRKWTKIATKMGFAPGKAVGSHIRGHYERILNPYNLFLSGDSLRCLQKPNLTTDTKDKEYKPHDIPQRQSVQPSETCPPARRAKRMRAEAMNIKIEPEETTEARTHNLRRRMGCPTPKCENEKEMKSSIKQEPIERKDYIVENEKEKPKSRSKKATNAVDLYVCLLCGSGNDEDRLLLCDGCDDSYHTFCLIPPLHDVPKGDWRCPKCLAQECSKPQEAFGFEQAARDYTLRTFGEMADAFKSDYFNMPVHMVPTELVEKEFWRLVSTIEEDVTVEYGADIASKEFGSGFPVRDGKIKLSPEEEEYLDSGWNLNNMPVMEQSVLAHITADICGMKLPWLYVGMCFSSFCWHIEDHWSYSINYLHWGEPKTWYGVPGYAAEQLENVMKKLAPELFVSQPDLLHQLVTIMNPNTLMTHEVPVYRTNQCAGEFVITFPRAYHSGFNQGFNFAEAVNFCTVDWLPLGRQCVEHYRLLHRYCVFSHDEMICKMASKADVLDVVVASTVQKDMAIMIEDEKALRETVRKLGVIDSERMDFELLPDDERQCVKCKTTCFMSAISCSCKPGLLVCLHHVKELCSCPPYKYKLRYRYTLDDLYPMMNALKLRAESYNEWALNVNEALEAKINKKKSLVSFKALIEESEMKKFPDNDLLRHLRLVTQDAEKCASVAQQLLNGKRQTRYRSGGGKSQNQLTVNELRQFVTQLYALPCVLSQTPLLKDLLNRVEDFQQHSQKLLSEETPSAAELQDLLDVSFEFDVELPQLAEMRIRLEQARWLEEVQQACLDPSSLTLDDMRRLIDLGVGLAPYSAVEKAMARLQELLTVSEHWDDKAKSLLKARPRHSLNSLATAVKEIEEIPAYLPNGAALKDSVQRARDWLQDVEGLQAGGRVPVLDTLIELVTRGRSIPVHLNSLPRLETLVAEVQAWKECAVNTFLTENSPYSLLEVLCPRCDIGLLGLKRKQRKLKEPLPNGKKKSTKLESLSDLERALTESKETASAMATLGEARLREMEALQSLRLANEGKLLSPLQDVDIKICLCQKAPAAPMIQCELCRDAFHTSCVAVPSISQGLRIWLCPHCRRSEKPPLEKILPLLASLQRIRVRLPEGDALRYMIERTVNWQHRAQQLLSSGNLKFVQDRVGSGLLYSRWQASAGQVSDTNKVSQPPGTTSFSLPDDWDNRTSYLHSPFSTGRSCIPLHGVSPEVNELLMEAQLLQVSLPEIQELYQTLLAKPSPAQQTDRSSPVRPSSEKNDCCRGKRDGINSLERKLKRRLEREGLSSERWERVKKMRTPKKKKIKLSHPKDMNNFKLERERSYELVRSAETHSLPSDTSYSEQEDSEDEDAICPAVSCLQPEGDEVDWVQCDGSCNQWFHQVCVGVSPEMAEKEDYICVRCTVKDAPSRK

Row | Structure (SMILES) | IC50 [µM]
1 | CC(C)c1c(-c2cc(C3CC3)cs2)[nH]c2ncnn2c1=O [Example 11-143, 5-(4-cyclopropylthiophen-2-yl)-6-(1-methylethyl)[1,2,4]triazolo[1,5-a]pyrimidin-7(4H)-one] | 0.0793
2 | CC(C)c1c(-c2cc(-c3ccccc3)cs2)[nH]c2ncnn2c1=O [Example 11-144, 6-(1-methylethyl)-5-(4-phenylthiophen-2-yl)[1,2,4]triazolo[1,5-a]pyrimidin-7(4H)-one] | 0.0762
3 | CC(C)c1c(-c2cnn(C(C)(C)C)c2)[nH]c2ncnn2c1=O [Example 11-145, 5-(1-tert-butyl-1H-pyrazol-4-yl)-6-(1-methylethyl)[1,2,4]triazolo[1,5-a]pyrimidin-7(4H)-one] | 0.00508
4 | CC(C)CCn1cc(-c2[nH]c3ncnn3c(=O)c2C(C)C)cn1 [Example 11-146, 5-[1-(3-methylbutyl)-1H-pyrazol-4-yl]-6-(1-methylethyl)[1,2,4]triazolo[1,5-a]pyrimidin-7(4H)-one] | 0.00522
5 | CC(C)c1c(-c2cccs2)[nH]c2ncnn2c1=O [Example 11-147, 6-(1-methylethyl)-5-thiophen-2-yl[1,2,4]triazolo[1,5-a]pyrimidin-7(4H)-one] | 0.413
6 | CC(C)c1c(-c2ccc(C(F)(F)CO)nc2)[nH]c2ncnn2c1=O [Example 12-2, 5-[6-(1,1-difluoro-2-hydroxyethyl)pyridin-3-yl]-6-(1-methylethyl)[1,2,4]triazolo[1,5-a]pyrimidin-7(4H)-one] | 0.0307
7 | CC(C)c1c(-c2cncc(CO)c2)[nH]c2ncnn2c1=O [Example 12-3, 5-[5-(hydroxymethyl)pyridin-3-yl]-6-(1-methylethyl)[1,2,4]triazolo[1,5-a]pyrimidin-7(4H)-one] | 0.0225
